Laboratory results reported in patent US20100311714A1, “1H-IMIDAZO[4,5-c]QUINOLINONE COMPOUNDS” (priority 2009, published 2010).
Values after ≈ are worked out from the molar mass of the structure shown.

Assay: High-throughput equilibrium solubility at pH 6.8
Assay type: physicochemical
Conditions: pH 6.8, aqueous buffer, thermodynamic from solid; read-out: HT-Eq Sol/pH 6.8
Source text: The physicochemical properties of relevance for the absorption of the compound, such as the solubility and the membrane permeability, especially at a pH close to neutral pH can be measured using the procedure as described by L. ZHOU et al. in JOURNAL OF PHARMACEUTICAL SCIENCES, VOL. 96, NO. 11, p. 3052-3071 (2007) for the solubility at pH 6.8 and the procedure as described by F. Wohnsland and B. Faller in Journal of Medicinal Chemistry Vol 44, p. 923-930 (2001) for the Parallel Artificial Membrane Permeability Assay (PAMPA) at pH 6.8.

Compound | solubility thermodynamic [µg/mL]
CCOc1ccc(-c2ccc3ncc4c(c3c2)n(-c2ncccc2C)c(=O)n4C)cn1 [Example 3.6, 8-(6-Ethoxy-pyridin-3-yl)-3-methyl-1-(3-methyl-pyridin-2-yl)-1,3-dihydro-imidazo[4,5-c]quinolin-2-one] | 20 (≈ 48.6 µM)
CCOc1ncc(-c2ccc3ncc4c(c3c2)n(-c2ncccc2C)c(=O)n4C)cn1 [Example 3.1, 8-(2-Ethoxy-pyrimidin-5-yl)-3-methyl-1-(3-methyl-pyridin-2-yl)-1,3-dihydro-imidazo[4,5-c]quinolin-2-one] | 39 (≈ 94.6 µM)
Cc1cccnc1-n1c(=O)n(C)c2cnc3ccc(-c4ccc(CO)nc4)cc3c21 [Example 3.9, 8-(6-Hydroxymethyl-pyridin-3-yl)-3-methyl-1-(3-methyl-pyridin-2-yl)-1,3-dihydro-imidazo[4,5-c]quinolin-2-one] | > 397
COc1ccc(-c2ccc3ncc4c(c3c2)n(-c2ncccc2C)c(=O)n4C)cc1OC [Example 3.10, 8-(3,4-Dimethoxy-phenyl)-3-methyl-1-(3-methyl-pyridin-2-yl)-1,3-dihydro-imidazo[4,5-c]quinolin-2-one] | 195 (≈ 457 µM)
CNc1ncc(-c2ccc3ncc4c(c3c2)n(-c2ncccc2C)c(=O)n4C)cn1 [Example 3.4, 3-Methyl-8-(2-methylamino-pyrimidin-5-yl)-1-(3-methyl-pyridin-2-yl)-1,3-dihydro-imidazo[4,5-c]quinolin-2-one] | 11 (≈ 27.7 µM)
CNC(=O)c1ccc(-c2ccc3ncc4c(c3c2)n(-c2ncccc2C)c(=O)n4C)cc1 [Example 3.5, N-Methyl-4-[3-methyl-1-(3-methyl-pyridin-2-yl)-2-oxo-2,3-dihydro-1H-imidazo[4,5-c]quinolin-8-yl]-benzamide] | 10 (≈ 23.6 µM)
Cc1cccnc1-n1c(=O)n(C)c2cnc3ccc(-c4ccc(C(N)=O)cc4)cc3c21 [Example 3.3, 4-[3-Methyl-1-(3-methyl-pyridin-2-yl)-2-oxo-2,3-dihydro-1H-imidazo[4,5-c]quinolin-8-yl]-benzamide] | 5 (≈ 12.2 µM)
Cc1ncccc1-n1c(=O)n(C)c2cnc3ccc(-c4ccc(OCCCN(C)C)nc4)cc3c21 [Example 2.10, 8-[6-(3-Dimethylamino-propoxy)-pyridin-3-yl]-3-methyl-1-(2-methyl-pyridin-3-yl)-1,3-dihydro-imidazo[4,5-c]quinolin-2-one] | > 469

Next, values leading:

solubility thermodynamic [µg/mL] | Compound
39 (≈ 95 µM) | Cc1cccnc1-n1c(=O)n(C)c2cnc3ccc(-c4ccc(N(C)C)nc4)cc3c21 [Example 3.11, 8-(6-Dimethylamino-pyridin-3-yl)-3-methyl-1-(3-methyl-pyridin-2-yl)-1,3-dihydro-imidazo[4,5-c]quinolin-2-one]
50 (≈ 122 µM) | CCOc1ccc(-c2ccc3ncc4c(c3c2)n(-c2cnccc2C)c(=O)n4C)cn1 [Example 4.2, 8-(6-Ethoxy-pyridin-3-yl)-3-methyl-1-(4-methyl-pyridin-3-yl)-1,3-dihydro-imidazo[4,5-c]quinolin-2-one]
75 (≈ 189 µM) | Cc1ccncc1-n1c(=O)n(C)c2cnc3ccc(-c4ccc(CO)nc4)cc3c21 [Example 4.1, 8-(6-Hydroxymethyl-pyridin-3-yl)-3-methyl-1-(4-methyl-pyridin-3-yl)-1,3-dihydro-imidazo[4,5-c]quinolin-2-one]
4 (≈ 10.1 µM) | CN(C)c1ccc(-c2ccc3ncc4c(c3c2)n(-c2cccnc2)c(=O)n4C)cn1 [Example 5.3, 8-(6-Dimethylamino-pyridin-3-yl)-3-methyl-1-pyridin-3-yl-1,3-dihydro-imidazo[4,5-c]quinolin-2-one]
